{"source": "patent US9593376B2", "about": "“Natural killer p30 (NKp30) dysfunction and the biological applications thereof” (INSTITUT GUSTAVE ROUSSY, priority 2008, dated 2017)", "key": {"[1]": {"system": "wild-type NCR3 gene splicing (NKp30 isoforms)", "assay": "Modulation of wild-type NCR3 gene splicing by antisense oligonucleotides", "settings": "SEQ ID NO: 49-51 used in combination; no experiment described"}, "[2]": {"system": "alternative splicing of NCR3 gene (NKp30 SHORT, INTER, LONG isoforms) in YTS cells", "assay": "Modulation of alternative splicing of NCR3 gene in YTS cells (RT-PCR of NKp30 isoform proportions)", "assay_type": "cell-based, human", "settings": "100 nM, 45 h at 37° C., FIG. 14A", "experimental": "(§1) FIG. 14. Modulation of alternative splicing of NCR3 gene with histone deacetylase inhibitors and DNA methyltransferase inhibitors (part A of experimental section)\n(§2) NKp30 isoform proportions are shown as the ratio of the sum of WT—(variable Ig-like) and DEL—(constant Ig-like) extracellular domain relative quantities of each isoform (SHORT-, INTER- and LONG-tail isoforms) and the total quantity of the six isoforms.\n(A) YTS cells were seeded (5.10^5 NK/well) in 96 wells plates and incubated with trichostatine A (100 nM) (TSA) for 45 h at 37° C.\n(§3) Total cellular RNA was isolated from PBMC and NK cell lines with the RNeasy kit (Qiagen). First strand cDNA was synthesized from 5 μg of total RNA using SuperScript™ II Reverse Transcriptase and random primers (Promega) according to Invitrogen's instructions.\n(§4) Modulation of NCR3 Alternative Splicing by HDAC and Demethylating Agents.\nYTS cells were seeded (5.10^5 NK/well) in 96 wells plates and incubated with trichostatine A (100 nM) for 45 h at 37° C.\n(§5) Several approaches modulating alternative splicing may be used to operate a switch from NKp30 INTER^Low/SHORT^High/LONG^High (identified as profile B following the first results obtained in the present study (part A.)) towards NKp30 INTER^High/SHORT^Low/LONG^Low (identified as profile A following the first results obtained in the present study (part A.)). […]"}, "[3]": {"system": "alternative splicing of NCR3 gene (NKp30 SHORT, INTER, LONG isoforms) in NK92 cells", "assay": "Modulation of alternative splicing of NCR3 gene in NK92 cells (RT-PCR of NKp30 isoform proportions)", "assay_type": "cell-based, human", "settings": "2 μM with IL-2 (50 UI/ml), 36 h at 37° C., FIG. 14B", "experimental": "as §1, §2\n(B) NK92 cells were seeded (5.10^5 NK/well) in 96 wells plates and incubated with 5-azacitidine (2 μM) (5AZA) and IL-2 (50 Ul/ml) for 36 h at 37° C.\nas §3, §4\nNK92 cells were seeded (5.10^5 NK/well) in 96 wells plates and incubated with 5-azacitidine (2 μM) and IL-2 (50 Ul/ml) for 36 h at 37° C.\nas §5"}, "[4]": {"system": "NKp30 transcriptional profile (PBMC of GIST patients)", "assay": "NKp30 transcriptional profile stability in GIST patients during the course of imatinib mesylate treatment", "assay_type": "in vivo, human", "settings": "GIST therapy, spanning several years in some cases, four patients, FIG. 4", "text": "FIG. 4. Representation of NKp30 transcriptional profile intra-individual stability in four GIST patients during the course of treatment\nNKP30 transcriptional profile. NKp30 isoform proportions are shown as the ratio of the relative quantities of each isoform and the total quantity of the six isoforms. For each patient, the numbers in brackets represent the time post-treatment in months.\nas §3\nFor the “GIST patients and Healthy Volunteers” cohort, real time quantitative PCR amplifications were conducted using FastStart DNA Master SYBRGreen I Mix according to the manufacturer's instructions, with 0.3 μM primers, 2 mM MgCl2 and cDNAs, in a 20 μl final reaction volume. Thermocycling was performed using a LightCycler (Roche Molecular System) initiated by 10 min incubation at 95° C., followed by 38 cycles (95° C., 1 s; 65° C., 10 s; 72° C., 20 s). NKp30 mRNA expression level was normalized by dividing its relative mRNA amount with the corresponding GAPDH mRNA amount."}}, "note": "Where a name gives a salt, the structure may show the parent alone.", "data": [{"compound": "antisense oligonucleotides corresponding to SEQ ID NO: 49-51: three antisense oligonucleotides used in combination: target polyadenylation signal 1, polyadenylation site 1, and INTER blocking (antisense 1 GGGGCAGATTTATTGGGGTC; antisense 2 CTCATGAGGAGTTAGTGGT; antisense 3 GTGACAGTGGCCTGGTCAGA; listed as DNA, chemistry not given here)", "values": [{"measurement": "Representation of NKp30 INTER, SHORT and LONG isoforms compared to reference or mean values", "setting": "[1]", "result": "significant (relative) under-representation of NKp30 INTER isoforms associated with a relative over-representation of NKp30 SHORT and LONG isoforms"}]}, {"compound": "CC(/C=C/C(=O)NO)=C\\[C@@H](C)C(=O)c1ccc(N(C)C)cc1", "note": "[trichostatin A]", "values": [{"measurement": "Proportions of NKp30 INTER, SHORT and LONG isoforms", "setting": "[2]", "result": "significant over-representation of INTER isoforms associated with an under-representation of SHORT and LONG isoforms"}]}, {"compound": "Nc1ncn([C@@H]2O[C@H](CO)[C@@H](O)[C@H]2O)c(=O)n1", "note": "[5-azacitidine]", "values": [{"measurement": "Proportions of NKp30 INTER, SHORT and LONG isoforms", "setting": "[3]", "result": "significant over-representation of INTER isoforms associated with an under-representation of SHORT and LONG isoforms"}]}, {"compound": "Cc1ccc(NC(=O)c2ccc(CN3CCN(C)CC3)cc2)cc1Nc1nccc(-c2cccnc2)n1", "note": "[imatinib mesylate]", "values": [{"measurement": "Modulation of the pattern of NKp30 expression overtime", "setting": "[4]", "result": "did not appear to modulate the pattern of NKp30 expression overtime"}]}]}
